Source: ChEMBL document CHEMBL1201862, “PubChem BioAssay data set” (2004)
The source made the active and inactive calls.

What was measured:
[1] = target: T1, Replicative DNA helicase DnaB (Mycobacterium tuberculosis, UniProt P9WMR3); test: DnaB intein splicing inhibitors, dose response, biochemical, cell-free fluorescence (AID 449749); format: functional
T1 sequence (P9WMR3 whole entry): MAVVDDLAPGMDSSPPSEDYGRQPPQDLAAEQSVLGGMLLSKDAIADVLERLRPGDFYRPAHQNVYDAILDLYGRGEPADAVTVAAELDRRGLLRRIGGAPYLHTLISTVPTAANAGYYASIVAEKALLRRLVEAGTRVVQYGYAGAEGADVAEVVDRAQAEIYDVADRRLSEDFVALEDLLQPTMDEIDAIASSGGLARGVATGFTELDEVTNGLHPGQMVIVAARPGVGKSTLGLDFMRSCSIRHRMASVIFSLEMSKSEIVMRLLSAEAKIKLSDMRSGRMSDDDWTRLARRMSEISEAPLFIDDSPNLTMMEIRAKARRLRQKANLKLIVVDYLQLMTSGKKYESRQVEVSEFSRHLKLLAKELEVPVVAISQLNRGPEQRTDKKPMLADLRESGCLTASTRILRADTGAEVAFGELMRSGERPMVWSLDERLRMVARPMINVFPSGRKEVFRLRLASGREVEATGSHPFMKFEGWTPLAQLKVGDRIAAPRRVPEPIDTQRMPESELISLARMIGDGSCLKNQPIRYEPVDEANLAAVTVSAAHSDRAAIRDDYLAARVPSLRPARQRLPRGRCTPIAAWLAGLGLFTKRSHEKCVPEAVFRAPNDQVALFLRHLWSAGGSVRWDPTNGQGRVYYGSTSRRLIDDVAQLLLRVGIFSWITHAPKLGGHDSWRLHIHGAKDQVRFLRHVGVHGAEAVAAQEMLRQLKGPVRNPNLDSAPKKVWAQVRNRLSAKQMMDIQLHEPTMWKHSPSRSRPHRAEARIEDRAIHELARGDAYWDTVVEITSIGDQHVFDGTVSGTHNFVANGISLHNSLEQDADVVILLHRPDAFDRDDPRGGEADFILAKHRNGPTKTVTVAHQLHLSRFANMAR

[2] = Luminescent dose response cell-based high throughput screening assay for inhibitors of the Janus kinase 2 mutant JAK2V617F. [Related pubchem assays: 1446 (Primary screen.), 1521 (Confirmation assay.), 1486 (Counter screen.)]; format: functional
[3] = target: Beta-2 adrenergic receptor (Homo sapiens, UniProt P07550); test: beta2AR agonists driving receptor internalization, dose response, cell-based, FAP fluorogen, flow cytometry, cherry pick 1 (AID 588763); format: functional
Protein RecA = target: T2, Protein RecA (Mycobacterium tuberculosis, UniProt P9WHJ3); test: Fluorescence Cell-Free Homogeneous Dose Retest to Identify Inhibitors of RecA-Intein Splicing Activity. [Related pubchem assays (depositor defined):AID2097, AID2223, AID489010, AID492950]; format: functional
T2 sequence (P9WHJ3 whole entry): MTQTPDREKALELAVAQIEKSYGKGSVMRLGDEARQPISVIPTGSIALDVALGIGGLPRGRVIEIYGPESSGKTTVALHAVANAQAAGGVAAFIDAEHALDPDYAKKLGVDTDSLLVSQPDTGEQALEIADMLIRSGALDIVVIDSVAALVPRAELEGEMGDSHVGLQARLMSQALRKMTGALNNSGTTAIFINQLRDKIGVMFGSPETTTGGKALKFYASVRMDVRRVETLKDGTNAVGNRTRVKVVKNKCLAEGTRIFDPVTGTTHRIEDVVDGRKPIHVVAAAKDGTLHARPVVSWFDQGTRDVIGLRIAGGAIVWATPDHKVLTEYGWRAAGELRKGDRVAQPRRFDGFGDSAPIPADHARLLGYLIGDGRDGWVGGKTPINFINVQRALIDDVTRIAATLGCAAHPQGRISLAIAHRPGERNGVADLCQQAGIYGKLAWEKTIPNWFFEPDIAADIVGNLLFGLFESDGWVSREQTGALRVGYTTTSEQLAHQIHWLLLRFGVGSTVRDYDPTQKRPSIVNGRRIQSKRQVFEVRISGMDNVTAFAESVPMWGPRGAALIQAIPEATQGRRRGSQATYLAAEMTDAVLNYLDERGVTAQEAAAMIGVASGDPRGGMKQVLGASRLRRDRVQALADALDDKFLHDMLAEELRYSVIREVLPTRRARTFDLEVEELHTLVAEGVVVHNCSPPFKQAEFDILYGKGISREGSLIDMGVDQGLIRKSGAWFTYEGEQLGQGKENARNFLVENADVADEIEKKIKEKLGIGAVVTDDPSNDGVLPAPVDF

[4] = target: T3, Sphingosine 1-phosphate receptor 4 (Homo sapiens, UniProt O95977); test: Fluorescence dose response cell-based high throughput screening assay for antagonists of the Sphingosine 1-Phosphate Receptor 4 (S1P4). [Related pubchem assays: 1524 (Confirmation in triplicates.), 1510 (Primary screen.)]; format: functional
Fatty acid synthase [5] = target: T4, Fatty acid synthase (Homo sapiens, UniProt P49327); test: FAS thioesterase domain inhibitors, dose response, biochemical, kinetic fluorescence intensity (AID 624326); format: functional;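 note: rate of fluorescence rise from hydrolysis of a fluorogenic O-methyl fluorescein ester substrate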
[6] = target: Sphingosine 1-phosphate receptor 1 (Homo sapiens, UniProt P21453); format: functional;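 note: Tango beta-arrestin reporter U2OS cells stimulated with S1P near its EC80; inhibitor potency meaning antagonism of receptor activation by the natural agonist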
[7] = target: T3, Sphingosine 1-phosphate receptor 4; test: Late stage fluorescence dose response cell-based screening assay for antagonists of the Sphingosine 1-Phosphate Receptor 4 (S1P4). [Related pubchem assays: 1524 (Confirmation screen (S1P4 antagonists).), 1510 (Primary screen (S1P4 antagonists).), 1853 (Summary AID (S1P4 antagonists).), 1692 (Dose response screen (S1P4 antagonists).)]; format: functional
Fatty acid synthase [8] = target: T4, Fatty acid synthase; test: FAS thioesterase domain inhibitors, dose response, biochemical, endpoint fluorescence intensity, uHTS hits (AID 624327); format: functional;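 note: fluorescence from hydrolysis of an O-methyl fluorescein acyl ester substrate by the enzyme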
[9] = target: Heat shock protein HSP 90-alpha (Homo sapiens, UniProt P07900); format: functional, organism-based
[10] = target: DNA (cytosine-5)-methyltransferase 1 (Homo sapiens, UniProt P26358); test: DNMT1 methyltransferase inhibitors, confirmation, biochemical, fluorescent molecular beacon (AID 602386); format: functional
Vero = Vero cell cytotoxicity, cytotoxicity control for flavivirus capping enzyme inhibitors (AID 588742); format: functional; details: Chlorocebus sabaeus
Hexokinase HKDC1 = target: T5, Hexokinase HKDC1 (Homo sapiens, UniProt Q2TB90); test: HKDC1 hexokinase inhibitors, dose response, biochemical, W721R variant (AID 504729); format: functional
T5 sequence (Q2TB90 whole entry): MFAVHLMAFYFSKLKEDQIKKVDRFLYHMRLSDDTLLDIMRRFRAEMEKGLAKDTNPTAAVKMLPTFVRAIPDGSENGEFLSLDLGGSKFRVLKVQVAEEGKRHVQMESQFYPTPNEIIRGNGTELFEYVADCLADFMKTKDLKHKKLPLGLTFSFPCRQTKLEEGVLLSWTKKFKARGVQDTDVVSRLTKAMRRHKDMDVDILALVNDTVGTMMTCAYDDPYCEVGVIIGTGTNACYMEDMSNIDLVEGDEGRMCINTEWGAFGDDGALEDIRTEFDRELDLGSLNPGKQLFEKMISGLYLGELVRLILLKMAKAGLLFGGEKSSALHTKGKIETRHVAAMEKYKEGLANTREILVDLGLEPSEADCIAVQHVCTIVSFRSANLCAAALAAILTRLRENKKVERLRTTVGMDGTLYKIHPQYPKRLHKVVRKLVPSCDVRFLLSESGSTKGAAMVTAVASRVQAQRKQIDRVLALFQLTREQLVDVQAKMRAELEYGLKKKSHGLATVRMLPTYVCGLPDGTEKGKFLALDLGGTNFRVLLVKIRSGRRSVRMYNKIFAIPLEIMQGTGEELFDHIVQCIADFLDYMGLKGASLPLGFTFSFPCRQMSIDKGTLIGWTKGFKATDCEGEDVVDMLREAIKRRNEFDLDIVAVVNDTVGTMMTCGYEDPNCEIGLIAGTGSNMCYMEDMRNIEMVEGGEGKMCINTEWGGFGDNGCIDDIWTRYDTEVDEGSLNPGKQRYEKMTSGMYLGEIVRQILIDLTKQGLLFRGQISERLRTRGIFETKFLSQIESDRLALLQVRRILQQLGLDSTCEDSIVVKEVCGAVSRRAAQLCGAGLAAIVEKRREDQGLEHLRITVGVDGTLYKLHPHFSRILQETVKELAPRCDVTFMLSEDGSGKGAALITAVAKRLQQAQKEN

[11] = target: G-protein coupled receptor 55 (Homo sapiens, UniProt Q9Y2T6); test: GPR55 agonists via beta-arrestin recruitment, primary screen, imaging, U2OS cells, beta-arrestin-GFP redistribution (AID 1961); format: functional
[12] = Shn3 3'UTR reporter inhibitors, dose response, cell-based, Clone20 osteoblasts, firefly luciferase, cherry-picked (AID 624132); format: functional;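 note: firefly luciferase luminescence from reporter carrying the Shn3 3'UTR in osteoblasts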
[13] = cytotoxicity in HEK-293T cells, dose response, cytotoxicity control for TCR NF-kB inhibitor project, luminescence, T-cell screen hits (AID 489026); format: functional, cell-based;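 note: cells exposed to compound about 14 hours before the viability readout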
HEK293 [14] = test: SAR Analysis of small molecule inhibitors of T-cell specific antigen receptor-induced NF-kB activation in a HEK-293T cell line using a luminescence assay - Set 2. [Related pubchem assays (depositor defined):AID435003, AID435012, AID489026]; format: functional, cell-based; details: Homo sapiens
BJ [15] = test: cytotoxicity toward BJ-TERT fibroblasts, dose response, cell-based, RAS-independent, luminescence (AID 1933); format: functional; details: Homo sapiens
cells [16] = format: functional, cell-based
[17] = Luminescence-based dose response cell-based high throughput screening assay for cytotoxic compounds using the IEC-6 intestinal epithelial cell line. [Related pubchem assays: 1858 (Summary AID.), 1825 (Counterscreen.), 1907 (Confirmation screen.)]; format: functional
[18] = HepG2 cell cytotoxicity, dose response, cytotoxicity control for Shn3 inhibitor project, CellTiter-Glo, cherry-picked (AID 624134); format: functional, cell-based
BJ [19] = test: cells; format: functional, cell-based; details: Homo sapiens
[20] = target: Serine/threonine-protein phosphatase (Candida dubliniensis (strain CD36 / CBS 7987 / NCPF 3949 / NRRLY-17841) (Yeast), UniProt B9W6M3); test: calcineurin pathway inhibitors in yeast reporter, dose response, S. cerevisiae, CDRE-lacZ, luminescence, secondary (AID 2388); format: functional, cell-based;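 note: yeast reporter cells carrying a calcineurin-responsive lacZ construct stimulated with calcium chloride; luminescent beta-galactosidase reporter signal in whole cells rather than isolated phosphatase activity; potency for inhibition where a drop in reporter signal means calcineurin blockade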
[21] = cytotoxicity toward DRD oncogenic fibroblasts, dose response, cell-based, non-viral oncogenic, luminescence (AID 1934); format: functional; details: Homo sapiens
HEK293 [22] = test: inhibitors of LMP1-driven NF-kB reporter, dose response, cell-based, HEK293, luciferase, cherry-pick (AID 588343); format: functional; details: Homo sapiens
INS1 = test: beta cell apoptosis inhibitors, cytokine rescue, dose response, luminescence, retest (AID 449756); format: functional, cell-based; details: Rattus norvegicus;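 note: cell death triggered by IL-1 beta plus TNF-alpha plus IFN-gamma mixture; protective hits raise ATP signal compared with cytokine alone wells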
Jurkat = test: SAR Analysis of small molecule inhibitors of T-cell specific antigen receptor-induced NF-kB activation in a Jurkat cell line using a luminescence assay - Set 2. [Related pubchem assays (depositor defined):AID435003, AID435012, AID465]; format: functional, cell-based; details: Homo sapiens
BJ [23] = test: cytotoxicity toward BJ-TERT-LT-ST fibroblasts, dose response, cell-based, RAS-independent, luminescence (AID 1935); format: functional; details: Homo sapiens;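 note: BJ fibroblasts immortalized with TERT plus LT and ST oncogenes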
[24] = NIH-3T3 fibroblast cytotoxicity, dose response, cytotoxicity control, cell-based, fluorescence, Alamar Blue, secondary assay (AID 2327); format: functional;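 note: NIH-3T3 mouse fibroblasts cultured with fluconazole at 8 µg/mL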
HEK293 [25] = test: cytotoxicity in HEK293T NF-kB-Luc cells, SAR follow-up, cytotoxicity control for NF-kB activator project, cell-based, resazurin fluorescence (AID 493251); format: functional; details: Homo sapiens
[26] = target: ATP-dependent molecular chaperone HSP82 (Candida albicans (strain WO-1) (Yeast), UniProt C4YTQ8); test: loss of DOC-induced GRE-beta-galactosidase reporter signal, dose response, Hsp90 inhibitor project, S. cerevisiae, luminescence (AID 2400); format: functional, cell-based;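 note: beta-galactosidase luminescence from glucocorticoid response element reporter as proxy for Hsp90 function; inhibitor potency where signal loss means Hsp90 inhibition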
[27] = C. albicans growth with fluconazole, confirmation, fluorescence, retest (AID 2467); format: functional, cell-based
cells [28] = format: functional, cell-based; remark: listed apart in the source
[29] = control 3'UTR Renilla luciferase suppression, dose response, counter-screen for Shn3 inhibitor project, cell-based, Clone20-Shn3RL, cherry-picked (AID 624133); format: functional

T3 sequence (O95977 whole entry, the tested form may be a part): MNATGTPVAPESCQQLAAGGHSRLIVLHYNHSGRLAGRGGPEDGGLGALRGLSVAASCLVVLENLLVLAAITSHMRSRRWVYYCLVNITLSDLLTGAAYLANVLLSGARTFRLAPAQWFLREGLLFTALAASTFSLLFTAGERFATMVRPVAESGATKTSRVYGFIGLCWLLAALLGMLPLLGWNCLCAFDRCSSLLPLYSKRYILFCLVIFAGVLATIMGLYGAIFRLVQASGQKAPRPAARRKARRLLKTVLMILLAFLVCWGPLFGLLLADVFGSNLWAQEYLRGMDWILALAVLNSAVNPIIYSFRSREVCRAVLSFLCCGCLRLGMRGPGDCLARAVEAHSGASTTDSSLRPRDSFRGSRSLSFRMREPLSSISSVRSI
T4 sequence (P49327 whole entry, the tested form may be a part): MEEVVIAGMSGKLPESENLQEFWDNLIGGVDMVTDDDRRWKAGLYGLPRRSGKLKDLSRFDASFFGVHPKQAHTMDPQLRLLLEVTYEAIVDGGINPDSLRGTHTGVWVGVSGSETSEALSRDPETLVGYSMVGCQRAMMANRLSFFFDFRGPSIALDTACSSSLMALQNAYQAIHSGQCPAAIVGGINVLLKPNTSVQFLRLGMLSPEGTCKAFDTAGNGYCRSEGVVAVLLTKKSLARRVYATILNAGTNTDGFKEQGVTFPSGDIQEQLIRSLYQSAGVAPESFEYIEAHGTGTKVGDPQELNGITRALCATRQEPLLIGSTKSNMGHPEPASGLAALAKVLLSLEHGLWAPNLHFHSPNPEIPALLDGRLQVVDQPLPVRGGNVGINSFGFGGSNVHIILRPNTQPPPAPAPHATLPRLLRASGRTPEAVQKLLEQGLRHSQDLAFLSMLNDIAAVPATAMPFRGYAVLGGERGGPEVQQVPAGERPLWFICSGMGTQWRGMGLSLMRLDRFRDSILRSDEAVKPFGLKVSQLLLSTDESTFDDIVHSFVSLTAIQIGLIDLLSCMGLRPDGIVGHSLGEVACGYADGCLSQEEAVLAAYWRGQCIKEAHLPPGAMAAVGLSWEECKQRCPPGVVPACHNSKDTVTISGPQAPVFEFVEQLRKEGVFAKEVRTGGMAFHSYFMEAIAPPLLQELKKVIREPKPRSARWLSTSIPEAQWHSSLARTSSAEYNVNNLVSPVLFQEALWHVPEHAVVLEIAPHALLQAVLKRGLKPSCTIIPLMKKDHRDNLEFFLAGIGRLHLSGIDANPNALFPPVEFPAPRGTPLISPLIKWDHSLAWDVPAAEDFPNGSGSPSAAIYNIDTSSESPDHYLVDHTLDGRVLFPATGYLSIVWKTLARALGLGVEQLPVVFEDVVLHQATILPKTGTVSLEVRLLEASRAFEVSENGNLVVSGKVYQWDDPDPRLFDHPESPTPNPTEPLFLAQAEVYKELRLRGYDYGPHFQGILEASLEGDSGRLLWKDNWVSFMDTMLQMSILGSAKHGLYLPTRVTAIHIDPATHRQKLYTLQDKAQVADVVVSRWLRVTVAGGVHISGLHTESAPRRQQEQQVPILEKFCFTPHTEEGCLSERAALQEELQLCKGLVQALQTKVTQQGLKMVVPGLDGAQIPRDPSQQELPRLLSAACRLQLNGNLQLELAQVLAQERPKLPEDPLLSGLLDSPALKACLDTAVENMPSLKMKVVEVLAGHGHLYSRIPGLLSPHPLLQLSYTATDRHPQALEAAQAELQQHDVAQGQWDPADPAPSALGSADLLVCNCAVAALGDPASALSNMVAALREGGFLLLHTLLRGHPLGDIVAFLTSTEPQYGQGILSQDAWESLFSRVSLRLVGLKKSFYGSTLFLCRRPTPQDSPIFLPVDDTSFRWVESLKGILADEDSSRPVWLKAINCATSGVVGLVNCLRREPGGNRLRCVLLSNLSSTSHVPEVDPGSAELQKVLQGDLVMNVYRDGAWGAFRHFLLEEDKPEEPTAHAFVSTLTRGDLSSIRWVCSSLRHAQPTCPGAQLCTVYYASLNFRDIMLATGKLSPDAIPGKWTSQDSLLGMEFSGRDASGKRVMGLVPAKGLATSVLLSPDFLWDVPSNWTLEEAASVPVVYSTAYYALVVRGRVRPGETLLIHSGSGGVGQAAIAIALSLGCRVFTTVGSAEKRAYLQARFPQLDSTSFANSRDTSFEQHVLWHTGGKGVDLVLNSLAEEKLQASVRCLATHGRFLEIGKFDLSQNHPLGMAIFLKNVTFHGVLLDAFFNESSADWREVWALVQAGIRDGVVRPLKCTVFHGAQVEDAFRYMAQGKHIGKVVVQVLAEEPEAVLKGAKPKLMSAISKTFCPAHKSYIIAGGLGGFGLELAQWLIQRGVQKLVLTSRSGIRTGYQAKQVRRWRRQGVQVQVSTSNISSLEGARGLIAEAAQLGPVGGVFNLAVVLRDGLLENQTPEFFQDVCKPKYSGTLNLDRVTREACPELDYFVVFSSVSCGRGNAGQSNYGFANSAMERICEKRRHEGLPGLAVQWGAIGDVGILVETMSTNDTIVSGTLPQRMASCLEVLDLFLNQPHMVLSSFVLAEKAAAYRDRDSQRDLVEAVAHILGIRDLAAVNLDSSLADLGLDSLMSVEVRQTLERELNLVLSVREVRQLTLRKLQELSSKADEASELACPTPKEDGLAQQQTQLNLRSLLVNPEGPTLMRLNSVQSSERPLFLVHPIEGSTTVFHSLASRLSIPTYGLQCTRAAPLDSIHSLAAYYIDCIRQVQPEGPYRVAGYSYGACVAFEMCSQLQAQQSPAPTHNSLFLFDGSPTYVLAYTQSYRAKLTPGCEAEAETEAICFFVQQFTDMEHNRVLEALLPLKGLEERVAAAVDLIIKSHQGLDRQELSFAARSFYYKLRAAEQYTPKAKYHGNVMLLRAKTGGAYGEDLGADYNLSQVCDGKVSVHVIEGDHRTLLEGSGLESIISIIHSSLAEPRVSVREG
Sequence of DNA (cytosine-5)-methyltransferase 1 (P26358 whole entry): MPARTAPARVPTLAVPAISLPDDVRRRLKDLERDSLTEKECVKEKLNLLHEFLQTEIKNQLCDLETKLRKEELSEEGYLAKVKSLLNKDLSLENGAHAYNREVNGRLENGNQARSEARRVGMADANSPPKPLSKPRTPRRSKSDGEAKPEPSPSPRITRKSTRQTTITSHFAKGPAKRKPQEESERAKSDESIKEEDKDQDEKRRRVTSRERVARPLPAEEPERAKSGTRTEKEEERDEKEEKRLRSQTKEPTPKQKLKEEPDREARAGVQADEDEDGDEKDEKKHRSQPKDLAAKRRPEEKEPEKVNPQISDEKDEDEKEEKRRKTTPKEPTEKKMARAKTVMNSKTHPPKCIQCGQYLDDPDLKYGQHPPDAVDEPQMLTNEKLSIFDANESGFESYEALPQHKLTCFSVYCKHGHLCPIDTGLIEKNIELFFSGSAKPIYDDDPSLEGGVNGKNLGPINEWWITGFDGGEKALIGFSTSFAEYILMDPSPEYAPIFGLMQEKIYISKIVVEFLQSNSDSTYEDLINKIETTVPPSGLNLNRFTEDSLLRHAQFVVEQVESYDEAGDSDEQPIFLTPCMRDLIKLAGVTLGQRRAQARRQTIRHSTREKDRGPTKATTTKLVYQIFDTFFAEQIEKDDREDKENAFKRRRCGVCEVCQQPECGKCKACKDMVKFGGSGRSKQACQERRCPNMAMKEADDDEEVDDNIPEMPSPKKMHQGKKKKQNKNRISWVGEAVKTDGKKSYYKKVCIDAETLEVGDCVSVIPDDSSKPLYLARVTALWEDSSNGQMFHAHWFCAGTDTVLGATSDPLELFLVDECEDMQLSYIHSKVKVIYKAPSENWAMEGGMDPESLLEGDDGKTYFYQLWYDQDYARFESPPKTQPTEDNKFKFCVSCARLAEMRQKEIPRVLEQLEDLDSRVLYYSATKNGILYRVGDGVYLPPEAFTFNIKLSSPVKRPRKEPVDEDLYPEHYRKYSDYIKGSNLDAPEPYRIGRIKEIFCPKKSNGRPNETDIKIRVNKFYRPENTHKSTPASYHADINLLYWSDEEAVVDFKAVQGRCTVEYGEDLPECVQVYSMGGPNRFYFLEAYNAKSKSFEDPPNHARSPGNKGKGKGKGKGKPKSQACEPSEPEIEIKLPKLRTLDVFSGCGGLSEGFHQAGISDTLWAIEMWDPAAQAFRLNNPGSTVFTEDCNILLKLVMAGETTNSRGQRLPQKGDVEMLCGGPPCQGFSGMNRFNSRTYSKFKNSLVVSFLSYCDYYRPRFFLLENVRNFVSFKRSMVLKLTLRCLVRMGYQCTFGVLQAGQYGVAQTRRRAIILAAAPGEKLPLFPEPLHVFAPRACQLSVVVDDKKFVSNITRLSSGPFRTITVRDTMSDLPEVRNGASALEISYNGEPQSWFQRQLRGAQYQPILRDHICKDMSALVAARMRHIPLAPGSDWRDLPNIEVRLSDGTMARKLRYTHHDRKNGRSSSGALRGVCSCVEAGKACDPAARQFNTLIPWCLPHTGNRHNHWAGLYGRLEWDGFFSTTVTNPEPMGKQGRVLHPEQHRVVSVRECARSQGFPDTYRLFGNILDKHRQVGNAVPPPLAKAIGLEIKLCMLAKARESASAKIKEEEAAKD
Sequence of Sphingosine 1-phosphate receptor 1 (P21453 whole entry): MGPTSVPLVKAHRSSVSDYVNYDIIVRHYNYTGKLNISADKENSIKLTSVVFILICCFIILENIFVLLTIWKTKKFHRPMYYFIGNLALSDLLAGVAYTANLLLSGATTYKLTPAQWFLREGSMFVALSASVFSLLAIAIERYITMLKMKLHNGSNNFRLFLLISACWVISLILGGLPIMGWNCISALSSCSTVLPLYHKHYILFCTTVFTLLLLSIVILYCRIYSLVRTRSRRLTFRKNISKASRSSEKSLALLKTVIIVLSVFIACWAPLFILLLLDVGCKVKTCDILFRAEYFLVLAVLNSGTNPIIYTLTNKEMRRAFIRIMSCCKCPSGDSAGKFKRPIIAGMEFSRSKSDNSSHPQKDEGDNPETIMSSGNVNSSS

CCCC(=O)N(C1CC(C)C(C#N)(C#N)C1(C#N)C#N)N(C)C (stereo not given)
AC50 [1]: 1.61 µM (active)
IC50 [2]: 0.562 µM (active)
EC50 [3]: 35 µM (inactive)
EC50 (Protein RecA): 1.34 µM (active)
IC50 [4]: 2.42 µM (active)
IC50 (Fatty acid synthase [5]): 8.51 µM (active)
IC50 [6]: > 49.8 µM (not active)
IC50 [7]: 9.68 µM (not active)
IC50 (Fatty acid synthase [8]): 8.18 µM (active)

CCOC(=O)c1c(-n2c(C)cc(C=C3C(=O)NC(=S)NC3=O)c2C)sc2c1CCCC2
AC50 [9]: 2.61 µM (active)
IC50 [10]: 10 µM (active)
CC50 (Vero): 11.9 µM (active)
IC50 (Hexokinase HKDC1): 23.1 µM (inactive)
EC50 [11]: > 32 µM (inactive)

CCCC(=O)NC(c1ccccc1Cl)c1ccc2cccnc2c1O (stereo not given)
AC50 [12]: 1.21 µM (active)
IC50 [13]: > 80 µM (inactive)
IC50 (HEK293 [14]): 7.04 µM (active)
EC50 (BJ [15]): 1.12 µM (active)
EC50 (cells [16]): > 350 µM (not active)
IC50 [17]: 1.44 µM (active)
AC50 [9]: 4.09 µM (active)
AC50 [18]: 2.66 µM (active)
EC50 (BJ [19]): 7.5 µM (active)
EC50 [20]: > 180 µM (inactive)
EC50 [21]: 1.86 µM (inconclusive)
AC50 (HEK293 [22]): 5.2 µM (active)
AC50 (INS1): 0.63 µM (active)
IC50 (Jurkat): 4.29 µM (active)
EC50 (BJ [23]): 2.49 µM (active)
EC50 [24]: 14.6 µM (active)
IC50 (HEK293 [25]): 9.95 µM (active)
EC50 [26]: > 150 µM (inactive)
EC50 [27]: 0.656 µM (active)
EC50 (cells [28]): 6.59 µM (active)
AC50 [29]: 1.27 µM (active)
